# Activity calls are given as the source filed them. The calls are words filed in the database; no cut-off is given here.
# Assays:
# [1] = target: T1, Peroxisome proliferator-activated receptor gamma (Homo sapiens, UniProt P37231); experiment: Agonist activity at full length human PPARgamma1 transfected in […] cells co expressing RXRalpha and PPRE after 1 day by luciferase reporter gene transactivation assay; assay type: functional, cell-based, CHO-K1
# T1 sequence (P37231 whole entry): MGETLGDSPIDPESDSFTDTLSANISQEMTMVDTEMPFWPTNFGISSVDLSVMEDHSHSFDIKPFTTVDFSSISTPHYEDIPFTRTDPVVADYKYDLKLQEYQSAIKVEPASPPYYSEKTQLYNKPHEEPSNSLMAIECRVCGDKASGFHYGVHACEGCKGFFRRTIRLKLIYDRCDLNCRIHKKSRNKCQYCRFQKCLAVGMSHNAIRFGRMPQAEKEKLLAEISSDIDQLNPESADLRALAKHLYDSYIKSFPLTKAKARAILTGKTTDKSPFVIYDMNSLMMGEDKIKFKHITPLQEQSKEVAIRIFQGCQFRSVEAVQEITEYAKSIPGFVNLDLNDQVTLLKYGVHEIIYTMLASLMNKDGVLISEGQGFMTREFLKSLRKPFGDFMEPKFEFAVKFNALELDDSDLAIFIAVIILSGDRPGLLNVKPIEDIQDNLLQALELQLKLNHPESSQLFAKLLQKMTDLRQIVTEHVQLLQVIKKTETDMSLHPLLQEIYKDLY
# [2] = Clearance in human liver microsomes at 1 umol/L after 20 mins by HPLC analysis; assay type: ADME, Microsome; details: read-out: CLH
# [3] = target: T2, Peroxisome proliferator-activated receptor alpha (Homo sapiens, UniProt Q07869); experiment: Agonist activity at human PPARalpha expressed in COS-1 cells after 1 day by luciferase reporter gene transactivation assay; assay type: functional, cell-based
# T2 sequence (Q07869 whole entry): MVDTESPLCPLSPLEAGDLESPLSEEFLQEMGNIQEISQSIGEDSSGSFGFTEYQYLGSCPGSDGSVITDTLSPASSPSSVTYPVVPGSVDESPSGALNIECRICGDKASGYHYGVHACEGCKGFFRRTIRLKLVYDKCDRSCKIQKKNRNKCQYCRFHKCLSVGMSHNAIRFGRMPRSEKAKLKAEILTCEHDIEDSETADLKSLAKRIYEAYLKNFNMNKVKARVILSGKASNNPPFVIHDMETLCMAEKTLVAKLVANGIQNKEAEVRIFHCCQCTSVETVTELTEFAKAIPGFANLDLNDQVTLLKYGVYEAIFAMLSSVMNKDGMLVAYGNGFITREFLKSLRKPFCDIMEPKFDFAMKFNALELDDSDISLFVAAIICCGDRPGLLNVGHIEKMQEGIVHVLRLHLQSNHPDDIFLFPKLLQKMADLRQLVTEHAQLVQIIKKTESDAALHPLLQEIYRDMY
# [4] = target: T3, Peroxisome proliferator-activated receptor delta (Homo sapiens, UniProt Q03181); experiment: Agonist activity at human PPARdelta expressed in COS-1 cells after 2 days by luciferase reporter gene transactivation assay; assay type: functional, cell-based
# T3 sequence (Q03181 whole entry): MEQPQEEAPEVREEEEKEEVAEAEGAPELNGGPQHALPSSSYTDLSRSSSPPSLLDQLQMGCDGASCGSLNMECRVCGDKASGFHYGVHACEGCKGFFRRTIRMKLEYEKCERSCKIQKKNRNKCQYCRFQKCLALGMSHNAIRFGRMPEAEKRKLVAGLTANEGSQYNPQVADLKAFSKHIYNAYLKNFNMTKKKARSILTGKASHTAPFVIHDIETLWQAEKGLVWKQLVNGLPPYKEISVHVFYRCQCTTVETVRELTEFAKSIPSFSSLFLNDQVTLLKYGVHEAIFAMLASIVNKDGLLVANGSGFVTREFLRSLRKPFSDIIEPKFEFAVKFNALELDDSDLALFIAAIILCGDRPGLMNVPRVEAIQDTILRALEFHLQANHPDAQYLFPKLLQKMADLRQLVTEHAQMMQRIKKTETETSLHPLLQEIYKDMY
# [5] = target: T1, Peroxisome proliferator-activated receptor gamma; experiment: Displacement of [3H]-AD-5061 from human GST-tagged PPARgamma
# [6] = target: T4, Peroxisome proliferator-activated receptor alpha (Homo sapiens) (UniProt Q07869); experiment: Binding affinity to PPARalpha at 10 uM by competitive binding assay
# T4 sequence (whole entry): T2 sequence (Q07869 whole entry)
# [7] = target: T5, Peroxisome proliferator-activated receptor delta (Homo sapiens) (UniProt Q03181); experiment: Binding affinity to PPARdelta at 10 uM by competitive binding assay
# T5 sequence (whole entry): T3 sequence (Q03181 whole entry)
# Homo sapiens = organism: Homo sapiens; experiment: Selectivity ratio of EC50 for human PPARalpha to EC50 for human PPARgamma1
# [8] = target: PPAR delta/gamma (Homo sapiens) (UniProt P37231+Q03181); experiment: Selectivity ratio of EC50 for human PPARdelta to EC50 for human PPARgamma1
# Rattus norvegicus [9] = experiment: Antidiabetic activity in po dosed fatty Wister rat assessed as reduction of plasma glucose level administered once daily for 7 days; assay type: functional; details: for ED25: 168 h
# [10] = Clearance in rat liver microsomes at 1 umol/L after 20 mins by HPLC analysis; assay type: ADME, Microsome; details: read-out: CLH
# Rattus norvegicus [11] = experiment: Antidiabetic activity in po dosed fatty Wister rat assessed as reduction of triglyceride level administered once daily for 7 days; assay type: functional; details: for ED25: 168 h
# [12] = target: T4, Peroxisome proliferator-activated receptor alpha (Homo sapiens); experiment: Agonist activity at human PPARalpha expressed in COS-1 cells at 10 uM after 1 day by luciferase reporter gene transactivation assay; assay type: functional, cell-based
SMILES,EC50 ([1]; read-out: EC50),microsomal CLint at 1 µM [2],EC50 [3],EC50 [4],Ratio EC50 (Homo sapiens),Ratio EC50 [8],further results
CCCCCS(=O)(=O)NC(=O)CCc1cc(OC(C)C)nn1Cc1ccc(C(F)(F)F)cc1Cl,10 nM,163 µL/min/mg,> 10 µM,> 10 µM,> 500,> 500,IC50 [5]: 21 nM; Activity [6]: inactive; Activity [7]: inactive
CCCCCS(=O)(=O)NC(=O)CCc1cc(C(C)C)nn1Cc1ccc(Cl)cc1Cl,13 nM,124 µL/min/mg,> 10 µM,> 10 µM,> 500,> 500,
CC(C)Oc1cc(CCC(=O)NS(=O)(=O)Cc2ccccc2)n(Cc2ccc(Cl)cc2Cl)n1,260 nM,107 µL/min/mg,,,,,
CCCCCS(=O)(=O)NC(=O)/C=C/c1cc(OC(C)C)nn1Cc1ccc(C(F)(F)F)cc1Cl,,26 µL/min/mg,> 10 µM,> 10 µM,> 500,> 500,IC50 [5]: 23 nM; Activity [6]: inactive; Activity [7]: inactive; Activity (Rattus norvegicus [9]): Dose-dependent effect; ED25 (Rattus norvegicus [9]): 0.12 mg/kg; microsomal CLint at 1 µM [10]: 33 µL/min/mg; Activity (Rattus norvegicus [11]): Dose-dependent effect; ED25 (Rattus norvegicus [11]): 0.04 mg/kg
CCCCCS(=O)(=O)NC(=O)CCc1cc(C2CC2)nn1Cc1ccc(C(F)(F)F)cc1Cl,13 nM,78 µL/min/mg,> 10 µM,> 10 µM,> 500,> 500,
COCCOc1cc(/C=C/C(=O)NS(=O)(=O)CCC(C)C)n(Cc2ccc(C(F)(F)F)cc2Cl)n1,9 nM,34 µL/min/mg,> 10 µM,> 10 µM,> 500,> 500,Activity [12]: 47%
CCCCCCS(=O)(=O)NC(=O)CCc1cc(OC(C)C)nn1Cc1ccc(Cl)cc1Cl,21 nM,,> 10 µM,> 10 µM,,,
CCCCCS(=O)(=O)NC(=O)/C=C/c1cc(C2CC2)nn1Cc1ccc(C(F)(F)F)cc1Cl,,54 µL/min/mg,> 10 µM,> 10 µM,> 500,> 500,IC50 [5]: 12 nM; Activity [6]: inactive; Activity [7]: inactive; Activity (Rattus norvegicus [9]): Dose-dependent effect; ED25 (Rattus norvegicus [9]): 0.42 mg/kg; microsomal CLint at 1 µM [10]: 116 µL/min/mg; Activity (Rattus norvegicus [11]): Dose-dependent effect; ED25 (Rattus norvegicus [11]): 0.55 mg/kg
CCCCCS(=O)(=O)NC(=O)c1cc(OCCCC)nn1Cc1ccc(Cl)cc1Cl,,,,,,,EC50 ([1]; cho-k1): Not Active
CCCCCS(=O)(=O)NC(=O)CCc1cc(OCCCC)nn1Cc1ccc(Cl)cc1Cl,,,> 10 µM,> 10 µM,,,
CC(C)CCS(=O)(=O)NC(=O)/C=C/c1cc(OC(C)C)nn1Cc1ccc(C(F)(F)F)cc1Cl,,32 µL/min/mg,> 10 µM,> 10 µM,> 500,> 500,IC50 [5]: 15 nM; Activity [6]: inactive; Activity [7]: inactive; Activity (Rattus norvegicus [9]): Dose-dependent effect; ED25 (Rattus norvegicus [9]): 0.21 mg/kg; microsomal CLint at 1 µM [10]: 51 µL/min/mg; Activity (Rattus norvegicus [11]): Dose-dependent effect; ED25 (Rattus norvegicus [11]): 0.09 mg/kg; Activity [12]: 48%
CCCCCS(=O)(=O)NC(=O)CCc1cc(OCCOC)nn1Cc1ccc(Cl)cc1Cl,31 nM,144 µL/min/mg,> 10 µM,> 10 µM,,,
CCCCCS(=O)(=O)NC(=O)/C=C/c1cc(C(C)C)nn1Cc1ccc(Cl)cc1Cl,8.2 nM,99 µL/min/mg,> 10 µM,> 10 µM,> 500,> 500,
CCCCCS(=O)(=O)NC(=O)CCCc1cc(OCCCC)nn1Cc1ccc(Cl)cc1Cl,67 nM,,,,,,
CCCCCS(=O)(=O)NC(=O)CCCCc1cc(OCCCC)nn1Cc1ccc(Cl)cc1Cl,29 nM,,,,,,
CCCCCS(=O)(=O)NC(=O)CCc1cc(OCc2ccccc2)nn1Cc1ccc(Cl)cc1Cl,14 nM,100 µL/min/mg,> 10 µM,> 10 µM,,,
CC(C)Oc1cc(CCC(=O)NS(=O)(=O)C2CCCCC2)n(Cc2ccc(Cl)cc2Cl)n1,150 nM,,> 10 µM,> 10 µM,,,
CCCCCS(=O)(=O)NC(=O)/C=C/c1cc(OC(C)C)nn1Cc1ccc(Cl)cc1Cl,,29 µL/min/mg,> 10 µM,> 10 µM,> 500,> 500,
CC(C)Oc1cc(CCC(=O)O)n(Cc2ccc(Cl)cc2Cl)n1,500 nM,,,,,,
CCCCCS(=O)(=O)NC(=O)CCc1cc(-c2ccccc2)nn1Cc1ccc(Cl)cc1Cl,11 nM,111 µL/min/mg,> 10 µM,> 10 µM,,,
CC(C)Oc1cc(CCC(=O)NS(C)(=O)=O)n(Cc2ccc(Cl)cc2Cl)n1,450 nM,,,,,,
CCCCCS(=O)(=O)NC(=O)CCc1cc(OCc2ccccn2)nn1Cc1ccc(Cl)cc1Cl,120 nM,224 µL/min/mg,> 10 µM,> 10 µM,,,
CCCCCS(=O)(=O)NC(=O)CCc1cc(OC(C)C)nn1Cc1ccc(Cl)cc1Cl,,192 µL/min/mg,,,> 500,> 500,Activity (Rattus norvegicus [9]): inactive; microsomal CLint at 1 µM [10]: 128 µL/min/mg
CC(C)Oc1cc(CCC(=O)NS(=O)(=O)c2ccccc2)n(Cc2ccc(Cl)cc2Cl)n1,110 nM,,> 10 µM,> 10 µM,,,
CCCCCS(=O)(=O)NC(=O)CCc1cc(C(C)C)nn1Cc1ccc(C(F)(F)F)cc1Cl,,136 µL/min/mg,> 10 µM,> 10 µM,> 500,> 500,
CCCCS(=O)(=O)NC(=O)CCc1cc(OC(C)C)nn1Cc1ccc(Cl)cc1Cl,40 nM,165 µL/min/mg,> 10 µM,> 10 µM,,,
CCCS(=O)(=O)NC(=O)CCc1cc(OC(C)C)nn1Cc1ccc(Cl)cc1Cl,160 nM,,,,,,
CC(C)CCS(=O)(=O)NC(=O)CCc1cc(OC(C)C)nn1Cc1ccc(Cl)cc1Cl,17 nM,,> 10 µM,> 10 µM,,,
CCCCCS(=O)(=O)NC(=O)Cc1cc(OCCCC)nn1Cc1ccc(Cl)cc1Cl,> 10000 nM,,,,,,
